“And” between values parts separate entries of the source, which are not always exact repeats. Equal values may be shown once. Read-outs that look alike come from different tables or passages of the source.
Legend:
[1] = 14-membered ring
[2] = amide bond, 14-membered ring, T3P/Et3N
ASK1/MAP3K5 = ASK1/MAP3K5 (Homo sapiens (Human), UniProt Q99683); test: ASK1/MAP3K5 assay by Reaction Biology Corp.; assay type: biochemical; details: 20 μM myelin basic protein (MBP), 10 μM ATP
Protocol: ASK1/MAP3K5 was used as the protein kinase and 20 μM of myelin basic protein (MBP) and 10 μM ATP were used as the substrate.

GST-hASK1 = GST-hASK1 (Homo sapiens (Human), UniProt Q99683); test: ASK1 TR-FRET assay; assay type: biochemical; details: 5 nM GST-hASK1, 100 μM ATP, 2 μM STK Substrate 3
Protocol: The protein kinase activity of 5 nM GST-hASK1(Life Technologies PV4011) was assayed with 100 μM ATP and 2 μM of HTRF biotinylated STK Substrate 3 (CisBio Kit 62ST3PEJ), at ambient temperature in 25 mM Hepes, pH 7.5, 50 mM NaCl, 10 mM MgCl2, 0.02% Brij-35, 1 mM DTT, and 1% DMSO.
After a 10 minute pre-incubation, ASK1 protein kinase activity was initiated by addition of 10 μL of 300 μM ATP.

[3] = target: ASK1 T838 auto phosphorylation in HEK-293T cells (Homo sapiens (Human), UniProt Q99683); test: ASK1 (AUTO PHOS T838) assay, MSD format; assay type: cell-based; details: HEK 293T cells transfected with ASK1-V5 full length plasmid, compounds 1 hr at 37° C.; read-out: IC50
Chain of ASK1 T838 auto phosphorylation in HEK-293T cells (Q99683 whole entry): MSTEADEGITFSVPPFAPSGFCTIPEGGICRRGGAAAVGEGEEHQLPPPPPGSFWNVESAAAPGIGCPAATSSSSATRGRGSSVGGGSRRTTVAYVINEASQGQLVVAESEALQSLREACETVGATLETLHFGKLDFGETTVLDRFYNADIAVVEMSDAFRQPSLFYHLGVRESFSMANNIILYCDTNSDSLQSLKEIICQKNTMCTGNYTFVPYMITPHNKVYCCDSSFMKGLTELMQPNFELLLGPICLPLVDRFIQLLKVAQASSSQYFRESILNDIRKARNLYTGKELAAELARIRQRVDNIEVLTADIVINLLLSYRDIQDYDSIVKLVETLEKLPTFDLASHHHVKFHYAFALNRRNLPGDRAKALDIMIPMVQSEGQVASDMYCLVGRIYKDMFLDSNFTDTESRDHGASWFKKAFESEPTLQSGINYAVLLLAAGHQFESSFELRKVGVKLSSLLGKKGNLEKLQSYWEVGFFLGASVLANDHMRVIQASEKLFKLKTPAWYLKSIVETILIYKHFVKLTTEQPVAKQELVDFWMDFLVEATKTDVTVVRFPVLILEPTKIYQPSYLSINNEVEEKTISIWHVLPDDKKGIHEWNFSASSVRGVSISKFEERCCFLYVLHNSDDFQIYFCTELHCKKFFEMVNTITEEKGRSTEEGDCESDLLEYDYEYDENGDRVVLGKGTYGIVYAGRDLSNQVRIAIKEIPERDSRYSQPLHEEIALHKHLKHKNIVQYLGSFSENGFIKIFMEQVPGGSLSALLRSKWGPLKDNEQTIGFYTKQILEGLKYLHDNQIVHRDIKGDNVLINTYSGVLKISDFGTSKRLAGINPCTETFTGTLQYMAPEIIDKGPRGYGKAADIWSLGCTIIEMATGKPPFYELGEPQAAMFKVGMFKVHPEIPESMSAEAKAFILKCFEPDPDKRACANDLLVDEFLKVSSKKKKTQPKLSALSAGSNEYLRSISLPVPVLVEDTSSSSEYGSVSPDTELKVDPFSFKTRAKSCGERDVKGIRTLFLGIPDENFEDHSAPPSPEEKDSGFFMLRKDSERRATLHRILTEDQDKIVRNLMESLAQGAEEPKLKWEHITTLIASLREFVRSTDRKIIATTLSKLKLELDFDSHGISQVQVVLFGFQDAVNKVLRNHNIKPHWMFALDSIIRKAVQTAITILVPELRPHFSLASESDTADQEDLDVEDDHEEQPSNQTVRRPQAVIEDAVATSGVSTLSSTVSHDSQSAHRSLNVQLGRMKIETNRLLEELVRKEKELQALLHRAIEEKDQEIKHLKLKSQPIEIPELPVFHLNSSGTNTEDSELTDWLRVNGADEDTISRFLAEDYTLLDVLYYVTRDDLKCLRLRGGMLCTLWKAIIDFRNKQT

Chain of ASK1/MAP3K5 (Q99683 whole entry): as above
Chain of GST-hASK1 (Q99683 649-946): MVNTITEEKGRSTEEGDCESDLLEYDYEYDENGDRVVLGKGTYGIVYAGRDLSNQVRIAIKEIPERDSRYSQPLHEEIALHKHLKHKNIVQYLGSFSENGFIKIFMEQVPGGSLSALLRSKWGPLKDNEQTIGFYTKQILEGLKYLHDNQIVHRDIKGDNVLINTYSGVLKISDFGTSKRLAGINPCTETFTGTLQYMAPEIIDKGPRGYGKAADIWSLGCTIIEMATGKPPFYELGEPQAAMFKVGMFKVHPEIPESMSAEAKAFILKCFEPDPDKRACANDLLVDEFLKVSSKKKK

Compound | IC50 (ASK1/MAP3K5) | IC50 (GST-hASK1) | IC50 [3] | other results
CC(C)(C)OC(=O)N1C(=O)c2cc(Br)c(F)cc2OCCC=CCn2cnnc2-c2cccc1n2 |  |  |  | ring closure, isolated yield (from C=CCCOc1cc(F)c(Br)cc1C(=O)N(C(=O)OC(C)(C)C)c1cccc(-c2nncn2CC=C)n1, rcm bond, 15-membered ring, Hoveyda-Grubbs I (20 mol%), toluene, 1.66 mM, 110.0 °C, 17.0 h): 31%
CC(C)(C)OC(=O)N1C(=O)c2ccc(C(F)(F)F)cc2OCC=CCn2cnnc2-c2cccc1n2 |  |  |  | ring closure, yield after HPLC ([1]; from C=CCOc1cc(C(F)(F)F)ccc1C(=O)N(C(=O)OC(C)(C)C)c1cccc(-c2nncn2CC=C)n1, rcm bond, Hoveyda-Grubbs I (20 mol%), toluene, 1.9 mM, 110.0 °C, 17.0 h): 9% and 13%
O=C1Nc2cccc(n2)-c2nncn2CC=CCOc2cc(C(F)(F)F)ccc21 |  |  |  | ring closure, isolated yield (from C=CCOc1cc(C(F)(F)F)ccc1C(=O)Nc1cccc(-c2nncn2CC=C)n1, rcm bond, 14-membered ring, Hoveyda-Grubbs II (10 mol%), DCE, 2.64 mM, 80.0 °C, 3.0 h): 41%
O=C1Nc2cccc(n2)-c2nncn2CCCCOc2cc(C(F)(F)F)c(Cl)cc21 |  |  |  | ring closure, yield after HPLC ([1]; from Nc1cccc(-c2nncn2CCCCOc2cc(C(F)(F)F)c(Br)cc2C(=O)O)n1, amide bond, T3P/Et3N, Et3N/EtOAc, 18.0 mM, 50.0 °C, 4.0 h): 40%
O=C1Nc2cccc(n2)-c2nncn2CCCCOc2cc(Cl)c(F)cc21 |  |  |  | ring closure, isolated yield (from Nc1cccc(-c2nncn2CCCCOc2cc(Br)c(F)cc2C(=O)O)n1, amide bond, 14-membered ring, T3P/Et3N, Et3N/EtOAc, 110.0 °C, 0.05 h, 2 steps): 55%
O=C1Nc2cccc(n2)-c2nncn2CCCCOc2cc(Cl)ccc21 |  |  |  | ring closure, isolated yield (from Nc1cccc(-c2nncn2CCCCOc2cc(Br)ccc2C(=O)O)n1, amide bond, 14-membered ring, T3P/Et3N, Et3N/EtOAc, 116.0 mM, 50.0 °C, 3.0 h): 27%
O=C1Nc2cccc(n2)-c2nncn2CCCCOc2cc(F)c(Cl)cc21 |  |  |  | ring closure, isolated yield (from Nc1cccc(-c2nncn2CCCCOc2cc(F)c(Br)cc2C(=O)O)n1, amide bond, 14-membered ring, T3P/Et3N, Et3N/EtOAc, 117.0 mM, 80.0 °C, 17.0 h): 35%
O=C1Nc2cccc(n2)-c2nncn2CCCCOc2ccc(Cl)cc21 |  |  |  | ring closure, isolated yield (from Nc1cccc(-c2nncn2CCCCOc2ccc(Br)cc2C(=O)O)n1, amide bond, 14-membered ring, T3P/Et3N, Et3N/EtOAc, 76.0 mM, 80.0 °C, 4.0 h): 41%
CC1CCCOc2cc(Cl)ccc2C(=O)Nc2cccc(n2)-c2nncn21 (racemic) |  |  |  | ring closure, crude yield ([2]; from CC(CCCOc1cc(Br)ccc1C(=O)O)n1cnnc1-c1cccc(N)n1, EtOAc/Et3N, 50.0 °C, 12.0 h): 37%
CC1CCCn2cnnc2-c2cccc(n2)NC(=O)c2cc(Cl)ccc2O1 (racemic) |  |  |  | ring closure, crude yield ([2]; from CC(CCCn1cnnc1-c1cccc(N)n1)Oc1ccc(Br)cc1C(=O)O, Et3N/EtOAc, 137.0 mM, 70.0 °C, 3.0 h): 57%
CC1CCOc2cc(F)c(Cl)cc2C(=O)Nc2cccc(n2)-c2nncn2C1 (racemic) |  |  |  | ring closure, isolated yield (from CC(CCOc1cc(F)c(Br)cc1C(=O)O)Cn1cnnc1-c1cccc(N)n1, amide bond, 14-membered ring, T3P/Et3N, Et3N/EtOAc, 43.0 mM, 70.0 °C, 2.0 h): 23%
O=C1Nc2cccc(n2)-c2nncn2CCCCOc2ccc(-n3cnc(C4CC4)c3)cc21 [Example 22, 5^5-(4-Cyclopropyl-1H-imidazol-1-yl)-1^4H-6-oxa-3-aza-2(2,6)-pyridina-1(3,4)-triazola-5(1,2)-benzenacyclodecaphan-4-one] | < 100 nM | < 100 nM | < 1000 nM | 
Cc1cn(-c2ccc3c(c2)C(=O)Nc2cccc(n2)-c2nncn2[C@H](C)CCCO3)cn1 [Example 93, (R)-10-Methyl-5^5-(4-methyl-1H-imidazol-1-yl)-1^4H-6-oxa-3-aza-2(2,6)-pyridina-1(3,4)-triazola-5(1,2)-benzenacyclodecaphan-4-one] | < 100 nM | < 100 nM | < 1000 nM | 
Cc1cn(-c2ccc3c(c2)C(=O)Nc2cccc(n2)-c2nncn2[C@@H](C)CCCO3)cn1 [Example 94, (S)-10-Methyl-5^5-(4-methyl-1H-imidazol-1-yl)-1^4H-6-oxa-3-aza-2(2,6)-pyridina-1(3,4)-triazola-5(1,2)-benzenacyclodecaphan-4-one] | < 100 nM | < 100 nM | < 1000 nM | 
C[C@H]1CCCOc2ccc(-c3cnn(C)c3)cc2C(=O)Nc2cccc(n2)-c2nncn21 [Example 96, (S)-10-Methyl-5^5-(1-methyl-1H-pyrazol-4-yl)-1^4H-6-oxa-3-aza-2(2,6)-pyridina-1(3,4)-triazola-5(1,2)-benzenacyclodecaphan-4-one] | < 100 nM | < 100 nM | < 1000 nM | 
O=C1Nc2cccc(n2)-c2nncn2CCCCCOc2ccc(N3CCOCC3)cc21 [Example 172, 5^5-Morpholino-1^4H-6-oxa-3-aza-2(2,6)-pyridina-1(3,4)-triazola-5(1,2)-benzenacycloundecaphan-4-one] | < 100 nM | < 100 nM | < 1000 nM | 
O=C1Nc2cccc(n2)-c2nncn2CCCCCOc2ccc(N3CC4(COC4)C3)cc21 [Example 173, 5^5-(2-Oxa-6-azaspiro[3.3]heptan-6-yl)-1^4H-6-oxa-3-aza-2(2,6)-pyridina-1(3,4)-triazola-5(1,2)-benzenacycloundecaphan-4-one] | < 100 nM | < 100 nM | < 1000 nM | 

Continued, in another order:

IC50 (ASK1/MAP3K5) | IC50 (GST-hASK1) | IC50 [3] | Compound | other results
< 100 nM | < 100 nM | < 1000 nM | Cc1ccc2c(c1)C(=O)Nc1cccc(n1)-c1nncn1CCCCO2 [Example 18, 5^5-Methyl-1^4H-6-oxa-3-aza-2(2,6)-pyridina-1(3,4)-triazola-5(1,2)-benzenacyclodecaphan-4-one] | 
< 100 nM | < 100 nM | < 1000 nM | N#Cc1ccc2c(c1)C(=O)Nc1cccc(n1)-c1nncn1CCCCO2 [Example 20, 4-Oxo-1^4H-6-oxa-3-aza-2(2,6)-pyridina-1(3,4)-triazola-5(1,2)-benzenacyclodecaphane-5^5-carbonitrile] | 
< 100 nM | < 100 nM | < 1000 nM | Cn1nccc1-c1ccc2c(c1)C(=O)Nc1cccc(n1)-c1nncn1CCCCO2 [Example 23, 5^5-(1-Methyl-1H-pyrazol-5-yl)-1^4H-6-oxa-3-aza-2(2,6)-pyridina-1(3,4)-triazola-5(1,2)-benzenacyclodecaphan-4-one] | 
< 100 nM | < 100 nM | < 1000 nM | O=C1Nc2cccc(n2)-c2nncn2CCCCOc2ccc(-c3cccnc3)cc21 [Example 26, 5^5-(Pyridin-3-yl)-1^4H-6-oxa-3-aza-2(2,6)-pyridina-1(3,4)-triazola-5(1,2)-benzenacyclodecaphan-4-one] | 
< 100 nM | < 100 nM | < 1000 nM | O=C1Nc2cccc(n2)-c2nncn2CCCCOc2ccc(-c3ccncc3)cc21 [Example 27, 5^5-(Pyridin-4-yl)-1^4H-6-oxa-3-aza-2(2,6)-pyridina-1(3,4)-triazola-5(1,2)-benzenacyclodecaphan-4-one] | 
< 100 nM | < 100 nM | < 1000 nM | Cn1cncc1-c1ccc2c(c1)C(=O)Nc1cccc(n1)-c1nncn1CCCCO2 [Example 29, 5^5-(1-Methyl-1H-imidazol-5-yl)-1^4H-6-oxa-3-aza-2(2,6)-pyridina-1(3,4)-triazola-5(1,2)-benzenacyclodecaphan-4-one] | 
< 100 nM | < 100 nM | < 1000 nM | Cc1nn(C)cc1-c1ccc2c(c1)C(=O)Nc1cccc(n1)-c1nncn1CCCCO2 [Example 32, 5^5-(1,3-Dimethyl-1H-pyrazol-4-yl)-1^4H-6-oxa-3-aza-2(2,6)-pyridina-1(3,4)-triazola-5(1,2)-benzenacyclodecaphan-4-one] | 
< 100 nM | < 100 nM | < 1000 nM | Cc1nn(C)c(C)c1-c1ccc2c(c1)C(=O)Nc1cccc(n1)-c1nncn1CCCCO2 [Example 33, 5^5-(1,3,5-Trimethyl-1H-pyrazol-4-yl)-1^4H-6-oxa-3-aza-2(2,6)-pyridina-1(3,4)-triazola-5(1,2)-benzenacyclodecaphan-4-one] | 
< 100 nM | < 100 nM | < 1000 nM | Cc1cc(-c2ccc3c(c2)C(=O)Nc2cccc(n2)-c2nncn2CCCCO3)n(C)n1 [Example 34, 5^5-(1,3-Dimethyl-1H-pyrazol-5-yl)-1^4H-6-oxa-3-aza-2(2,6)-pyridina-1(3,4)-triazola-5(1,2)-benzenacyclodecaphan-4-one] | 
< 100 nM | < 100 nM | < 1000 nM | Cc1ncn(-c2ccc3c(c2)C(=O)Nc2cccc(n2)-c2nncn2CCCCO3)c1C [Example 42, 5^5-(4,5-Dimethyl-1H-imidazol-1-yl)-1^4H-6-oxa-3-aza-2(2,6)-pyridina-1(3,4)-triazola-5(1,2)-benzenacyclodecaphan-4-one] | 
< 100 nM | < 100 nM | < 1000 nM | O=C1Nc2cccc(n2)-c2nncn2CCCCOc2ccc(-n3cccn3)cc21 [Example 44, 5^5-(1H-Pyrazol-1-yl)-1^4H-6-oxa-3-aza-2(2,6)-pyridina-1(3,4)-triazola-5(1,2)-benzenacyclodecaphan-4-one] | 

From patent US11168095B2, “ASK1 inhibiting agents” (BIOGEN MA INC., priority 2017, dated 2021)
